Results published in patent US20070264212A1, “Skin Lightening Method” (priority 2004, published 2007).
“Also recorded” adds a separate entry of the source.

Key:
Type in all cases: in vivo, human
[1] = system: skin tone of adult test subject, skin type IV (moderate brown), Fitzpatrick classification; test: Skin tone lightening by oral MSM supplement taken twice daily (Table I); conditions: 3 months
Description: A first procedure for performing step 102 is described in Table I below, at various dosage levels and application periods. The application periods indicated in the table were carried out in immediately successive periods on the same individual. Exemplary results are also shown in Table I, for an adult test subject of approximately 45 kg weight having a skin type IV (moderate brown) according to the Fitzpatrick skin type classification. […] Because of variation between individuals, the effective amount of MSM that should be delivered to cause a noticeable change in skin tone may vary somewhat. For example, dosage should be calculated based on body weight. Based on the disclosure herein, one of ordinary skill should be able to determine an effective dosage regimen without undue experimentation. […] For the tested individual, the optimal dose for maximum skin lightening appears to be between 2000 and 4000 mg (45 to 90 mg/kg) daily.

[2] = system: skin tone of adult test subject, skin type IV (moderate brown), Fitzpatrick classification; test: Skin tone lightening by oral MSM plus topical application of MSM in water solution (Table II); conditions: once daily, 3 months
Description: In an alternative embodiment, step 102 may be performed by oral delivery of MSM in combination with a topical application. […] Exemplary results are also shown in […], for the same test subject reported in Table I. Each row of the table indicates result for a procedure that was performed during one of successive 3-month periods. For each procedure described in Table II, MSM delivered was in an effective amount for the reported test subject. Again, some variation in effective amount should be expected between individuals. For the procedures described in Table II, a topical application may be prepared by dissolving the indicated amount of MSM in water to provide an approximately 15% by weight solution. For example, one tablespoon of MSM may be dissolved in 8 to 10 tablespoons of warm water to prepare the solution indicated in the first row. Then, the solution may be applied to the skin, which may be kept moistened with the solution for a period of approximately ten minutes or longer. The solution may be applied cover the entire body, or only in areas where greater lightening of skin tone is desired. The indicated application may be performed once daily for approximately a three-month period. […] Suitable formulations for transdermal patches to deliver MSM should be readily ascertained by one of ordinary skill.

[3] = system: skin tone of test subject having a natural skin tone of Fitzpatrick type IV; test: Skin tone lightening by oral and topical MSM in combination with an exfoliate; conditions: oral and topical MSM plus exfoliate (e.g. twice-weekly 30% lactic or glycolic acid rinse)
Excerpt: Referring again to FIG. 1, at step 104, a skin lightening effect may be enhanced by application of an exfoliant during the MSM treatment period. The exfoliant is believed to cause more darkly pigmented cells that formed during a pre-treatment period to be more rapidly shed. […] For example, the treatment regimen described in the second row of Table III may be combined with a twice-weekly rinse in an exfoliate solution. A suitable exfoliate solution may comprise, for example, a 30% solution of lactic or glycolic acid. A lactic acid solution may be more suitable for an individual with sensitive skin. In a test using an exfoliate in combination with oral and topical application, the test subject having a natural skin tone of Fitzpatrick type IV achieved and maintained a class III tone overall, with class II tone in constitutive skin areas.

[4] = oral MSM 2000 mg twice daily (4000 mg daily), successive period, same subject

SMILES: CS(C)(=O)=O [MSM, methyl sulfonyl methane]
- Results (observed skin tone) ([1]; oral MSM 100 mg twice daily (200 mg daily), adult person ~45 kg, skin type IV): No Change
- Results (observed skin tone) ([1]; oral MSM 250 mg twice daily (500 mg daily), successive period, same subject): No Change
- Results (observed skin tone) ([1]; oral MSM 500 mg twice daily (1000 mg daily), successive period, same subject): No Change
- Results (observed skin tone), constitutive skin such as under the arms, inner thighs, chests and nipples ([1]; oral MSM 1000 mg twice daily (2000 mg daily), successive period, same subject): Light Brown (skin type III)
- Results (observed skin tone), constitutive skin [1, 4]: Olive (skin type II) observed in
- Results (observed skin tone), facultative skin such as the neck, face, forearms [1, 4]: Light Brown (skin type III)
- Results, freckles on face [1, 4]: Freckles on face also lightened
- Results (observed skin tone) ([1]; oral MSM 3000 mg twice daily (6000 mg daily), successive period, same subject): did not cause noticeable lightening relative to the 4000 mg regimen; also recorded: Same results as 4000 mg per day
- Results (observed skin tone), total body complexion ([2]; oral 2000 mg twice daily (4000 mg daily) + topical 1 Tablespoon (10,000 mg) MSM in water, approx. 15% solution): Light olive (skin type III)
- Results (observed skin tone), elsewhere than constitutive skin ([2]; oral 2000 mg twice daily (4000 mg daily) + topical 2 Tablespoons (20,000 mg) MSM in water): light olive; elsewhere light olive
- Skin tone achieved and maintained, constitutive skin areas [3]: class II
- Skin tone achieved and maintained, overall [3]: class III
